Measured values as given in publication PMC8050276, “Estradiol analogs attenuate autophagy, cell migration and invasion by direct and selective inhibition of TRPML1, independent of estrogen receptors” (Scientific Reports, 2021).

Columns and labels:
hTPC2L11A/L12A-RFP = target: T1, hTPC2L11A/L12A-RFP (Homo sapiens, UniProt Q8NHX9, L11A/L12A); experiment: Fluo-4 Ca2+ assay, HEK293 stably expressing hTPC2L11A/L12A-RFP, activated with TPC2-A1-N or TPC2-A1-P; format: cell-based; settings: activated by either TPC2-A1-P or TPC2-A1-N
T1 construct: expressed in transfected cells
T1 sequence (Q8NHX9 whole entry L11A/L12A): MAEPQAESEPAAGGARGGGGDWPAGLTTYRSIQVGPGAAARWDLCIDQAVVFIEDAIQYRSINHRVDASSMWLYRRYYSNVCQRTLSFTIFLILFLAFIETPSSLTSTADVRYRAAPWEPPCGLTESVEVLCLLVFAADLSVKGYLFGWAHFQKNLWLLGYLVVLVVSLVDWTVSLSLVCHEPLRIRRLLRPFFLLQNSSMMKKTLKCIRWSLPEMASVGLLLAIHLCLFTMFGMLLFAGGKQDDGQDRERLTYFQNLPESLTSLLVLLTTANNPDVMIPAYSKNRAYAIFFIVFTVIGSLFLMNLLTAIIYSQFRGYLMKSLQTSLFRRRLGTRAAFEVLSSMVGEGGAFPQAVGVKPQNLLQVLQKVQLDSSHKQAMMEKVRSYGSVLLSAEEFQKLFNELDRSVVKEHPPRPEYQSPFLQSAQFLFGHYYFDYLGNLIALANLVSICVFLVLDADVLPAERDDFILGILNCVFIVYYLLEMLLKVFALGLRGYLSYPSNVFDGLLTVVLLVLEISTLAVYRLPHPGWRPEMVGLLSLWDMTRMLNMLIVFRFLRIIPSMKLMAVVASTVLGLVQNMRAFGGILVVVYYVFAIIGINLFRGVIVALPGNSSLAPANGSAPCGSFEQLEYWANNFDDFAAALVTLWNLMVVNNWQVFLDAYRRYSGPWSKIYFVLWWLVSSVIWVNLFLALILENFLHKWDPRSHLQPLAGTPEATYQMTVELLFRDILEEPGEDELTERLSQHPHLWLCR

hTRPML1 WT = target: T2, hTRPML1 WT (Homo sapiens, UniProt Q9GZU1); experiment: Endolysosomal patch-clamp, vacuolin-enlarged endo-lysosomes from hTRPML1 WT expressing HEK293 cells; format: cell-based; settings: activation with ML-SA1 (10 µM) or PI(3,5)P2 (1 µM), luminal pH 4.6
T2 construct: expressed in transfected cells; host or cells: HEK293
T2 sequence (Q9GZU1 whole entry): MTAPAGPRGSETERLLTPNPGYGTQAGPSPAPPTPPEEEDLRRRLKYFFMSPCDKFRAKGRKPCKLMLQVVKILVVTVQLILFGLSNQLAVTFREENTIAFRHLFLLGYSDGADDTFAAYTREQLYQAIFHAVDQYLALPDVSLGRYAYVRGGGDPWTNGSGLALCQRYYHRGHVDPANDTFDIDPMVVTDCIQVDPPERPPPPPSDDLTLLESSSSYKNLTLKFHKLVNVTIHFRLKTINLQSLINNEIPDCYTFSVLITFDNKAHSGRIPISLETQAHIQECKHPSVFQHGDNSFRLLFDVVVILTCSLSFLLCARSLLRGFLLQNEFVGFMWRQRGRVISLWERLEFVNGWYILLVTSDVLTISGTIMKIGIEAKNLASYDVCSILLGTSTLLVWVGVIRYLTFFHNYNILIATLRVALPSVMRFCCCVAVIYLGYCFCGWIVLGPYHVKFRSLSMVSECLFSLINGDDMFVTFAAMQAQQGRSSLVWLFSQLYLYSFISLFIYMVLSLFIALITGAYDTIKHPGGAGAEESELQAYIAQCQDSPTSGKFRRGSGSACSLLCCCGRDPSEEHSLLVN
Procedure: (§1) For whole-LE/LY manual patch-clamp recordings, cells were treated with 1 μM vacuolin-1 (> 2 h) at 37 °C and 5% CO2 and experiments performed as described previously[19],[25]. Compound was washed out before patch-clamp experimentation. Currents were recorded using an EPC-10 patch-clamp amplifier (HEKA, Lambrecht, Germany) and PatchMaster acquisition software (https://www.heka.com/). Data were digitized at 40 kHz and filtered at 2.8 kHz. Fast and slow capacitive transients were cancelled by the compensation circuit of the EPC-10 amplifier. All recordings were obtained at room temperature and were analyzed using PatchMaster acquisition software (https://www.heka.com/) and OriginPro 6.1 (https://www.originlab.com/). […] For all experiments, salt-agar bridges were used to connect the reference Ag–AgCl wire to the bath solution to minimize voltage offsets. Liquid junction potential was corrected. For the application of the small molecule inhibitors/flavonoids, cytoplasmic solution was completely exchanged by cytoplasmic solution containing compound. The current amplitudes at − 100 mV were extracted from individual ramp current recordings. Unless otherwise stated, cytoplasmic solution contained 140 mM K-MSA, 5 mM KOH, 4 mM NaCl, 0.39 mM CaCl2, 1 mM EGTA and 10 mM HEPES (pH was adjusted with KOH to 7.2). […]

TRPML1 [1] = target: T3, TRPML1 (Mus musculus, UniProt Q99J21); experiment: Endolysosomal patch-clamp, murine alveolar macrophages endogenously expressing TRPML1; format: cell-based; settings: EDME 10 µM, ML-SA1 10 µM
T3 construct: TRPML1 endogenously expressed in mouse alveolar macrophages; endogenous in cells; host or cells: primary murine alveolar macrophages
T3 sequence (Q99J21 whole entry): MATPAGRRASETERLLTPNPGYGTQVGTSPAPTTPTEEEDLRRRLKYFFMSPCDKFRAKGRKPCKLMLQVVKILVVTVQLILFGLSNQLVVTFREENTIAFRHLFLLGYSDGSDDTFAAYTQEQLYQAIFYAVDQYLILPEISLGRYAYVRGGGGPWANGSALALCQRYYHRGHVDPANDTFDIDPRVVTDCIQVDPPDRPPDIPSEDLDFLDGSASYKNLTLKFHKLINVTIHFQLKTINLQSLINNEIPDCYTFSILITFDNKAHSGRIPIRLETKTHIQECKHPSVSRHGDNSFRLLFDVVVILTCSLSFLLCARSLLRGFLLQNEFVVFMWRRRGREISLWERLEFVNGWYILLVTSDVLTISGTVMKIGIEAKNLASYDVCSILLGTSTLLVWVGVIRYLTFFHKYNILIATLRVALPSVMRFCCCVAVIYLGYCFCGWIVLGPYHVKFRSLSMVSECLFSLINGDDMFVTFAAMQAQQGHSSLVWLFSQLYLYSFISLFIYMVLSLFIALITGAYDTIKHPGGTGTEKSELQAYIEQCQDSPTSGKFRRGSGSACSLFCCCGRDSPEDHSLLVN
Procedure: as §1

TRPML1 [2] = target: T4, TRPML1 (Homo sapiens, UniProt Q9GZU1); experiment: Endolysosomal patch-clamp, endo-lysosomes from MDA-MB-231 cells; format: cell-based; settings: activation with ML-SA1
T4 construct: vacuolin-enlarged endo-lysosomes isolated from WT and KO1 MDA-MB-231 cells; endogenous in cells; host or cells: MDA-MB-231
T4 sequence (Q9GZU1 whole entry): as the sequence (Q9GZU1 whole entry) above
Procedure: as §1

TFEB = TFEB shift / nuclear translocation upon nutrient starvation; format: cell-based, human; settings: EDME 1 µM, Hbss
Procedure: 5 × 10^4 wild-type human fibroblasts were seeded in a 12-well plate and treated overnight with DMSO or different TRPML1 inhibitors (EDME, PRU-10, PRU-12). The day after, cells were treated for 3 h in full media (Fed) or HBSS supplemented with 10 mM HEPES (nutrient starved) in presence of DMSO or different TRPML1 inhibitors (EDME, PRU-10, PRU-12). For autophagic flux experiments, cells were co-treated with 100 nM of bafilomycin A1 (Sigma).
Total cell lysates were prepared using TRIS HCl 10 mM pH 8.0 and 0.2% SDS supplemented with protein and phosphatase inhibitors (Sigma). Protein concentration was determined using the Bradford method. After SDS–polyacrylamide gel electrophoresis (PAGE) and immunoblotting, the protein recognized by the specific antibody was visualized by chemiluminescence methods (Luminata Crescendo Western HRP substrate, Millipore) using HRP-conjugated anti-rabbit or anti-mouse secondary antibodies (Cell Signalling). Images were acquired using Li-Cor Odyssey Fc Imaging System and densitometric quantification of unsaturated images was performed using ImageJ software (NIH). Uncropped and unprocessed western blot scans are provided as Fig. S1. The following primary antibodies were used: LC3 (Novus Cat. No. NB100-2220, 1:1000 in 5% milk), TFEB (Cell Signaling Cat. No. 4240, 1:1000 in 5% BSA) and β-actin (Santa Cruz Cat. No. Sc-47778, 1: 1000 in 5% BSA).

COc1ccc2c(c1)CC[C@@H]1[C@@H]2CC[C@]2(C)[C@@H](O)CC[C@@H]12 [EDME, 17β-estradiol methyl ether]
IC50 at TPC2 (hTPC2L11A/L12A-RFP): no meaningful IC50s | inhibition of WT hTRPML1 current, endolysosomal patch-clamp (hTRPML1 WT): inhibitory effect | inhibition of endogenous TRPML1 in alveolar macrophages (TRPML1 [1]): inhibition of TRPML1 activation | inhibition of TRPML1 activation in MDA-MB-231 endo-lysosomes (TRPML1 [2]): inhibits TRPML1 activation | TFEB molecular downshift induced by nutrient starvation (TFEB): reduced
